From article PMC11676834, “Composition of Triterpene Glycosides of the Far Eastern Sea Cucumber Cucumaria conicospermium Levin et Stepanov; Structure Elucidation of Five Minor Conicospermiumosides A3-1, A3-2, A3-3, A7-1, and A7-2; Cytotoxicity of the Glycosides Against Human Breast Cancer Cell Lines; Structure–Activity …” (Marine Drugs, 2024)
Like-named read-outs stand apart in the source and are kept apart here.

Legend:
[1] = tested on: MDA-MB-231 cells; assay: cells; type: cell-based, human
Text: (§1) Human erythrocytes were purchased from the Station of Blood Transfusion, Vladivostok. Human mammary epithelial cell line MCF-10A CRL-10317, human breast cancer cell lines T-47D HTB-133, MCF-7 HTB-22, and MDA-MB-231 CRM-HTB-26 were received from ATCC (Manassas, VA, USA). Culturing conditions: medium of RPMI-1640 with 1% penicillin/streptomycin (Biolot, St. Petersburg, Russia) and 10% fetal bovine serum (FBS) (Biolot, St. Petersburg, Russia) for the T-47D cell line; Minimum Essential Medium (MEM) with 1% penicillin/streptomycin sulfate (Biolot, St. Petersburg, Russia) and FBS (Biolot, St. Petersburg, Russia) to a final concentration of 10% for MCF-7 and MDA-MB-231 cells; DMEM/F12 medium with 10% FBS, 20 ng/mL EGF, […] hydrocortisone, 100 ng/mL cholera toxin, 10 μg/mL insulin, and 1% penicillin/streptomycin (BioinnLabs, Rostov-on-Don, Russia) for MCF-10A cell line.
(§2) The concentrations of tested glycosides were 0.1–50 µM; positive controls were cisplatin and okhotoside A1-1 (7). […] Then, the solutions of tested compounds with medium were replaced by 100 µL of fresh medium, and 10 µL of 3-(4,5-dimethylthiazol-2-yl)-2,5-diphenyltetrazolium bromide (MTT) (PanReac, AppliChem, Darmstadt, Germany) stock solution (5 mg/mL) was added to each well and incubated for 4 h, followed by the addition of 100 µL of SDS-HCl solution (1 g SDS/10 mL d-H2O/17 µL 6 N HCl) and further incubated for 18 h. Multiskan FC microplate photometer (Thermo Fisher Scientific, Waltham, MA, USA) was used to measure the absorbance of the converted dye formazan at 570 nm. The concentration caused the 50% cell metabolic activity inhibition (IC50) expresses the cytotoxic activity of each glycoside. The experiments were conducted in triplicate, p ≤ 0.05.

[2] = tested on: MCF-7 cells; assay: cells; type: cell-based, human; details: MTT, 24 h, read-out: Cytotoxicity, IC50, MCF-7
Text: as §1
(§3) The concentrations of tested glycosides were 0.1–50 µM; positive controls were cisplatin and okhotoside A1-1 (7). Methodology: to each well of 96-well plates, the cell suspension (180 µL) with solution (20 µL) of tested glycoside in a certain concentration was placed (MCF-10A, MCF-7, T-47D, and MDA-MB-231—7 × 10^3 cells per well) and incubated in the atmosphere with 5% CO2 at 37 °C for 24 h. Then, the solutions of tested compounds with medium were replaced by 100 µL of fresh medium, and 10 µL of 3-(4,5-dimethylthiazol-2-yl)-2,5-diphenyltetrazolium bromide (MTT) (PanReac, AppliChem, Darmstadt, Germany) stock solution (5 mg/mL) was added to each well and incubated for 4 h, followed by the addition of 100 µL of SDS-HCl solution (1 g SDS/10 mL d-H2O/17 µL 6 N HCl) and further incubated for 18 h. Multiskan FC microplate photometer (Thermo Fisher Scientific, Waltham, MA, USA) was used to measure the absorbance of the converted dye formazan at 570 nm. The concentration caused the 50% cell metabolic activity inhibition (IC50) expresses the cytotoxic activity of each glycoside. The experiments were conducted in triplicate, p ≤ 0.05.

[3] = tested on: T-47D cells; assay: cells; type: cell-based, human; details: MTT, 24 h, read-out: Cytotoxicity, IC50, T-47D
Text: as §1, §3

[4] = tested on: MCF-10A cells; assay: in vitro; type: cell-based, human
Text: as §1, §2

[5] = tested on: MDA-MB-231 cells; assay: Wound scratch migration assay; type: cell-based, human; details: 24 h
Protocol: Attached to special migration plate plastic bottom MDA-MB-231 cells were separated by a silicone insert (Culture-insert 2 Well 24, ibiTreat). After removing an insert, the gap between the cells was 500 ± 50 μm. Cell debris and floating cells were deleted, and the fresh culture medium was added. Then, cells were treated with various concentrations of glycosides or culture medium only (vehicle control) and left for 24 hrs. Cell migration into the wound area was observed under a fluorescence microscope (MIB-2-FL, LOMO, Russia) with objective 10× magnification.

[6] = tested on: MDA-MB-231 cells; assay: Colony formation (clonogenic) assay, MDA-MB-231; type: cell-based, human
Protocol: (§4) The influence of glycosides on colony formation by MCF-10A or MDA-MB-231 cells was tested by the clonogenic assay. Cell density: 0.3 × 10^2/mL for MDA-MB-231 and for MCF-10A cells per well; incubation conditions: 10–12 days, 37 °C, atmosphere with 5% CO2; obtained: visible to eye colonies (at least 50 cells per colony); fixation with methanol (25 min); staining with 0.5% solution of crystal violet (25 min); washing and air-drying of plates. The counting of grown colonies was carried out using a BIO-PRINT-Cx4 Edge-Fixed Pad-Container (Vilber, Collégien, France) using Bio-Vision Software user and service manual-v18.01 (Vilber, Collégien, France). The results are presented as colony inhibition in comparison with the control.

[7] = tested on: human erythrocytes; assay: Hemolytic activity; type: cell-based; details: 1 h at 37 °C; for HC50: Erythrocyte, read-out: ED50, Erythrocytes (hemolytic activity)
Protocol: Human blood (B(III) Rh+) was used to obtain erythrocytes by centrifuging 450× g three times for 5 min with phosphate-buffered saline (PBS) (pH 7.4) at 4 °C on centrifuge LABOFUGE 400R (Heraeus, Hanau, Germany). Ice-cold PBS (pH 7.4) was used for resuspension of erythrocytes residue to a final optical density of 1.5 at 700 nm, which was kept on ice. Then, 10 µL of tested compound solution or control (okhotoside A1-1 (7)) were added to 90 µL of erythrocyte suspension in V-bottom 96-well plates and exposed for 1 h at 37 °C. Next, centrifugation at 900× g for 10 min on a laboratory centrifuge LMC-3000 (Biosan, Riga, Latvia), led to separation of layers, and 80 µL of supernatant was carefully decanted and transferred into new flat-plate for each. The values of erythrocyte lysis were measured on microplate photometer Multiskan FC (Thermo Fisher Scientific, Waltham, MA, USA) at λ = 570 nm as hemoglobin concentration in supernatant. The effective dose, causing lysis of 50% erythrocytes (ED50), was calculated with SigmaPlot 14.0 software. All the experiments were carried out in triple repetitions, p ≤ 0.05.

[8] = tested on: MCF-10A cells; assay: Colony formation (clonogenic) assay, MCF-10A; type: cell-based, human; details: 2 μM
Protocol: as §4

[9] = in vitro; type: cell-based, human; details: human
Text: as §1, §2

[10] = 48 h, read-out: Cytotoxicity, IC50, 48 h, MCF-10A
[11] = 72 h, read-out: Cytotoxicity, IC50, 72 h, MCF-10A
[12] = MTT, 24 h, read-out: Cytotoxicity, IC50, MCF-10A
[13] = Homo sapiens, MDA-MB-231, 48 h, read-out: Cytotoxicity, IC50, 48 h, MDA-MB-231
[14] = Homo sapiens, MDA-MB-231, 72 h, read-out: Cytotoxicity, IC50, 72 h, MDA-MB-231
[15] = Homo sapiens, MDA-MB-231, MTT, 24 h, read-out: Cytotoxicity, IC50, MDA-MB-231
[16] = Homo sapiens, MDA-MB-231, inhibition out of control, read-out: Inhibition of colony growth of MDA-MB-231 cells

| Compound | Tumor cell selectivity index (SI), IC50 MCF-10A / IC50 MDA-MB-231 ([1]; 24 h) | Tumor cell selectivity index (SI), IC50 MCF-10A / IC50 MDA-MB-231 ([1]; 48 h) | Tumor cell selectivity index (SI), IC50 MCF-10A / IC50 MDA-MB-231 ([1]; 72 h) | IC50 [1, 13] | IC50 [1, 14] | IC50 [1, 15] | IC50 ([2]; Homo sapiens, MCF7) | IC50 ([3]; Homo sapiens, T47D) | IC50 [9, 10] | IC50 [9, 11] | IC50 [9, 12] | HC50 [7] | inhibition at 5 µM [6, 16] | further results |
| --- | --- | --- | --- | --- | --- | --- | --- | --- | --- | --- | --- | --- | --- | --- |
| DS-okhotoside A1-1 [DS-okhotoside A1-1 (7a)] | 2.76 | 1.20 | 1.42 | – | – | – | – | – | – | – | – | – | – | IC50 ([1]; 48 h, read-out: Cytotoxicity, IC50, 48 h, MDA-MB-231): 4.32 ± 0.3 µM; IC50 ([1]; 72 h, read-out: Cytotoxicity, IC50, 72 h, MDA-MB-231): 2.73 ± 0.18 µM; IC50 ([1]; MTT, 24 h, read-out: Cytotoxicity, IC50, MDA-MB-231): 2.83 ± 0.36 µM; IC50 [2]: 18.8 ± 1.02 µM; IC50 [3]: 7.8 ± 0.31 µM; IC50 [4, 10]: 5.18 ± 0.28 µM; IC50 [4, 11]: 3.87 ± 0.24 µM; IC50 [4, 12]: 7.81 ± 0.32 µM; Inhibition of migration of MDA-MB-231 cells as compared with control ([5]; 0.5 μM): 61.2%; Constraint on cell motility (migration) of MDA-MB-231 cells ([5]; 1 μM): 85%; Inhibition of colony growth of MDA-MB-231 cells ([6]; 1 μM, inhibition out of control): 97.2%; ED50, Erythrocytes (hemolytic activity) [7]: 0.24 ± 0.02 µM |
| CO[C@@H]1[C@@H](O)[C@H](O[C@@H]2[C@@H](O)[C@H](O[C@H]3[C@H](O)[C@@H](O[C@@H]4OC[C@@H](O)[C@H](O)[C@H]4O)[C@H](O[C@H]4[C@H](O[C@H]5CC[C@]6(C)C7=CC[C@]8(C)[C@@H]([C@@](C)(O)C(=O)CC=C(C)C)CC[C@@]8(C)C7CC[C@H]6C5(C)C)OC[C@@H](OS(=O)(=O)[O-])[C@@H]4O)O[C@@H]3C)O[C@H](COS(=O)(=O)[O-])[C@H]2O)O[C@H](COS(=O)(=O)[O-])[C@H]1O.[Na+].[Na+].[Na+] (stereo partly drawn) [Conicospermiumoside A7-1 (4), 3β-O-{6-O-sodium sulfate-3-O-methyl-β-D-glucopyranosyl-(1→3)-6-O-sodium sulfate-β-D-glucopyranosyl-(1→4)-[(1→2)-β-D-xylopyranosyl]-β-D-quinovopyranosyl-(1→2)-4-O-sodium sulfate-β-D-xylopyranosyl}-(20R)-hydroxy-22-oxo-lanosta-9(11),24-diene] | – | 2.32 | 0.99 | 15.3 ± 1.01 µM | 11.2 ± 0.73 µM | 4.78 ± 0.23 µM | > 50 µM | 19.7 ± 1.01 µM | 35.5 ± 1.59 µM | 11.1 ± 0.57 µM | 40.2 ± 2.1 µM | 360 ± 40 nM | – | Influence on colony formation and growth of MCF-10A cells [8]: did not influence |
| CO[C@@H]1[C@@H](O)[C@H](O[C@@H]2[C@@H](O)[C@H](O[C@H]3[C@H](O)[C@@H](O[C@@H]4OC[C@@H](O)[C@H](O)[C@H]4O)[C@H](O[C@H]4[C@H](O[C@H]5CC[C@]6(C)C7CC[C@]8(C)[C@@H]([C@@](C)(O)[C@H](O)CC=C(C)C)CC[C@@]8(C)C7=CC[C@H]6C5(C)C)OC[C@@H](OS(=O)(=O)[O-])[C@@H]4O)O[C@@H]3C)O[C@H](COS(=O)(=O)[O-])[C@H]2O)O[C@H](CO)[C@H]1O.[Na+].[Na+] (stereo partly drawn) [Conicospermiumoside A3-1 (1), 3β-O-{3-O-methyl-β-D-glucopyranosyl-(1→3)-6-O-sodium sulfate-β-D-glucopyranosyl-(1→4)-[(1→2)-β-D-xylopyranosyl]-β-D-quinovopyranosyl-(1→2)-4-O-sodium sulfate-β-D-xylopyranosyl}-20R,22R-dihydroxylanosta-7,24-diene] | 2.29 | 11.97 | 3.14 | 2.54 ± 0.09 µM | 12.4 ± 0.75 µM | 5.93 ± 0.35 µM | 41.7 ± 3.08 µM | 19.9 ± 1.02 µM | 30.4 ± 1.05 µM | 39 ± 2.15 µM | 13.6 ± 0.71 µM | 770 ± 70 nM | 99.6% | – |
| CO[C@@H]1[C@@H](O)[C@H](O[C@@H]2[C@@H](O)[C@H](O[C@H]3[C@H](O)[C@@H](O[C@@H]4OC[C@@H](O)[C@H](O)[C@H]4O)[C@H](O[C@H]4[C@H](O[C@H]5CC[C@]6(C)C7CC[C@]8(C)[C@@H]([C@@](C)(O)C(=O)CC=C(C)C)CC[C@@]8(C)C7=CC[C@H]6C5(C)C)OC[C@@H](OS(=O)(=O)[O-])[C@@H]4O)O[C@@H]3C)O[C@H](COS(=O)(=O)[O-])[C@H]2O)O[C@H](CO)[C@H]1O.[Na+].[Na+] (stereo partly drawn) [Conicospermiumoside A3-3 (3), 3β-O-{3-O-methyl-β-D-glucopyranosyl-(1→3)-6-O-sodium sulfate-β-D-glucopyranosyl-(1→4)-[(1→2)-β-D-xylopyranosyl]-β-D-quinovopyranosyl-(1→2)-4-O-sodium sulfate-β-D-xylopyranosyl}-20R-hydroxy,22-oxolanosta-7,24-diene] | 2.03 | 1.05 | 1.02 | 10.1 ± 0.71 µM | 5.18 ± 0.43 µM | 5.62 ± 0.26 µM | 28.5 ± 1.18 µM | 10.7 ± 0.94 µM | 10.6 ± 0.72 µM | 5.27 ± 0.36 µM | 11.4 ± 0.58 µM | 210 ± 20 nM | 98.8% | inhibition at 2 µM ([5]; Homo sapiens, MDA-MB-231, 2 μM, read-out: Inhibition of migration of MDA-MB-231 cells as compared with control): 63.7%; inhibition at 2 µM ([6]; Homo sapiens, MDA-MB-231, 2 μM, read-out: Inhibition of colony growth of MDA-MB-231 cells): 96.8% |
